Measured values reported in publication PMC9026286, “Bacterial Lipodepsipeptides and Some of Their Derivatives and Cyclic Dipeptides as Potential Agents for Biocontrol of Pathogenic Bacteria and Fungi of Agrarian Plants” (Journal of Agricultural and Food Chemistry, 2022).
In brackets after ≈: the same amount, converted by molar mass. Where a SMILES comes first, the peptide text is derived from it. Bridges are numbered along the chain shown (N, C = ends). [ ]: non-standard residue; d: D form. The star is where a group is joined. ξ: configuration not given here. d(aThr) = C[C@@H](O)[C@@H](N)C(=O)O; Octanoyl(3-OH) = CCCCCC(O)CC(=O)*; X1 = CCCCCC(CC(=O)*)OC(C)=O; dDab = NCC[C@@H](N)C(=O)O; hSer = N[C@@H](CCO)C(=O)O; ξQ = NC(=O)CCC(N)C(=O)O; Dhb = C/C=C(\N)C(=O)O; ξL = CC(C)CC(N)C(=O)O; ξDab = NCCC(N)C(=O)O; ξK = NCCCCC(N)C(=O)O; ξT = CC(O)C(N)C(=O)O; ξV = CC(C)C(N)C(=O)O; ξAbu = CCC(N)C(=O)O; ξP = O=C(O)C1CCCN1; ξS = NC(CO)C(=O)O

Tests used:
[1] = tested on: Colletotrichum truncatum 17-5-5; settings: strain 17-5-5; lipodepsipeptides, serial dilutions from 0.1 to 1 μg/mL, potato dextrose broth, 24-well plates, 28 °C, 7 days; lowest concentration with no visible growth; triplicate
Protocol: The antifungal activity was performed in 24-well culture plates according to the method previously described[31] with some modification. Serial dilutions of different lipodepsipeptides (from 0.1 to 1 μg/mL) and cyclic dipeptides (from 10 to 1000 μg/mL) were dissolved in a volume of 500 μL of ultrapure Milli-Q and finally inoculated with 500 μL of 2× potato dextrose broth (Difco) containing the Colletotrichum truncatum plug of 4 mm × 4 mm diameter. As a control, C. truncatum plugs (4 mm × 4 mm) were grown in 2× PD broth diluted with 500 μL of ultrapure Milli-Q water, and the plates were incubated at 28 °C for 7 days. The MIC was measured as the lowest concentration of antifungal agent at which there was no visible growth of the fungus after incubation. The experiment was performed in triplicate.

[2] = tested on: Bacillus subtilis PY79; settings: PY79, 48 h
Protocol: (§2) Bacteria were grown in LB broth at 25 or 37 °C overnight at 150 rpm. A total of 500 μL of a suspension containing about 10^8 cfu mL^–1 were added to 3 mL of LB soft agar (0.7%) and poured onto plates containing 7 mL of LB broth with agar 1.8%. After agar gelification, 10 μL drops of serial dilutions of different lipodepsipeptides and their derivatives (from 0.1 to 1 μg/mL) and cyclic dipeptides (from 10 to 1000 μg/mL) were tested. After 24 ± 48 h of incubation at 25 or 37 °C, the end serial dilution inhibiting the growth of the bacteria in the area of application of 10 μL solutions was recorded. The plates containing the bacteria alone were used as a control. The experiment was performed in triplicate.

[3] = tested on: all the bacteria and the fungus tested; assay: Antimicrobial and antifungal tests, MIC ranges summarised over the panel; format: cell-based; settings: for reduction of activity with respect to that of 9: compared with compound 9
Protocol: (§1) The experiment was performed in triplicate.
as §1

[4] = tested on: Bacillus megaterium QMB; settings: 48 h
Protocol: as §2

[5] = tested on: Phytophthora infestans; settings: cited from earlier work
[6] = tested on: Plasmopara viticola; settings: cited from earlier work
[7] = tested on: Rhodococcus fascians LMG; settings: cited from earlier work
[8] = 2,5-diketopiperazines, range over all microorganisms tested (summary of Table 2)
[9] = lipodepsipeptides and derivatives, range over all the bacteria and the fungus tested (summary of Table 1)

**Q.** For WLIP methyl ester [WILP methyl ester], which MIC [1] is on record?
**A.** The MIC was 5 µg/mL.

**Q.** For CC(C)C[C@@H]1NC(=O)[C@@H]2CCCN2C1=O [compound 13, cyclo(L-Pro-L-Leu)], which MIC [2] is on record?
**A.** The MIC was 15 µg/mL (≈ 71.3 µM).

**Q.** What about the “reduction of activity with respect to that of 9” value ([3]; 2,5-diketopiperazines) of the same compound?
**A.** The value was 40–50 times.

**Q.** What about the MIC [4] of the same compound?
**A.** The MIC was 30 µg/mL (≈ 143 µM).

**Q.** For O=C1N[C@@H](Cc2ccc(O)cc2)C(=O)N2CCC[C@@H]12 [compound 9, cyclo(L-Pro-L-Tyr)], which MIC range [3, 8] is on record?
**A.** The MIC range was 15 to 20 µg/mL.

**Q.** What about the “antifungal activity against Phytophthora infestans” value [5] of the same compound?
**A.** The value was “showed antifungal activity”.

**Q.** And the “antifungal activity against Plasmopara viticola” value [6]?
**A.** The value was “showed antifungal activity”.

**Q.** Which MIC [1] does the source give for C/C=C(\NC(=O)[C@H](NC(=O)[C@H](CC(C)C)NC(=O)[C@@H](CCC(N)=O)NC(=O)[C@@H](NC(=O)[C@H](NC(=O)[C@@H](CC(C)C)NC(=O)[C@@H](CO)NC(=O)[C@H](NC(=O)[C@@H](CC(C)C)NC(=O)[C@@H](CO)NC(=O)[C@H]1CCCN1C(=O)/C(=C/C)NC(=O)CC(O)CCCCC)C(C)C)C(C)C)C(C)C)C(C)C)C(=O)N[C@H]1C(=O)N[C@@H]([C@@H](C)CC)C(=O)N[C@@H](CCO)C(=O)N[C@H](CCN)C(=O)N[C@@H](CCCCN)C(=O)O[C@@H]1C (stereo partly drawn) [compound 1, tolaasin I] ({Octanoyl(3-OH)}-[Dhb][dP][dS][dL][dV][dS][dL][dV]V[dQ]L[dV][Dhb][d(aThr)]I[hSer][dDab]K; ester 14-C) here?
**A.** The MIC was 0.6 µg/mL (≈ 0.302 µM).

**Q.** What does the source list for CCCCCC(O)CC(=O)NC(CC)C(=O)N1CCC[C@@H]1C(=O)N[C@H](CO)C(=O)N[C@H](CC(C)C)C(=O)N[C@@H](C(=O)N[C@H](CO)C(=O)N[C@H](CC(C)C)C(=O)N[C@@H](C(=O)N[C@H](C(=O)N[C@H](CCC(N)=O)C(=O)N[C@@H](CC(C)C)C(=O)N[C@@H](C(=O)NC(CC)C(=O)N[C@H]1C(=O)N[C@@H]([C@@H](C)CC)C(=O)N[C@@H](CCO)C(=O)N[C@H](CCN)C(=O)N[C@@H](CCCCN)C(=O)O[C@@H]1C)C(C)C)C(C)C)C(C)C)C(C)C (stereo partly drawn) [compound 16, tetrahydro tolaasin I] ({Octanoyl(3-OH)}-[ξAbu][dP][dS][dL][dV][dS][dL][dV]V[dQ]L[dV][ξAbu][d(aThr)]I[hSer][dDab]K; ester 14-C)?
**A.** MIC [1]: 3 µg/mL (≈ 1.51 µM); MIC range [3, 9]: 0.2 to 3 µg/mL

**Q.** With C/C=C(\NC(=O)C(NC(=O)C(CC(C)C)NC(=O)C(CCC(N)=O)NC(=O)C(NC(=O)C(NC(=O)C(CC(C)C)NC(=O)C(CO)NC(=O)C(NC(=O)C(CC(C)C)NC(=O)C(CO)NC(=O)C1CCCN1C(=O)/C(=C/C)NC(=O)CC(O)CCCCC)C(C)C)C(C)C)C(C)C)C(C)C)C(=O)NC1C(=O)N[C@@H](CC(C)C)C(=O)N[C@@H](CCO)C(=O)NC(CCN)C(=O)NC(CCCCN)C(=O)OC1C (stereo partly drawn) [compound 7, tolaasin D] ({Octanoyl(3-OH)}-[Dhb][ξP][ξS][ξL][ξV][ξS][ξL][ξV][ξV][ξQ][ξL][ξV][Dhb][ξT]L[hSer][ξDab][ξK]; ester 14-C) as the compound, how does the MIC [1] read?
**A.** The MIC was 0.2 µg/mL (≈ 0.101 µM).

**Q.** And the MIC range [3, 9]?
**A.** Its MIC range is 0.1 to 0.2 µg/mL.

**Q.** Which “reduction of activity with respect to that of 9” value ([3]; 2,5-diketopiperazines) does the source give for O=C1N[C@@H](Cc2ccc(O)cc2)C(=O)N2CCC[C@H]12 [compound 14, cyclo(D-Pro-L-Tyr)] here?
**A.** The value was 50–60 times.

**Q.** With C/C=C(\NC(=O)[C@H](NC(=O)[C@H](CC(C)C)NC(=O)[C@@H](CCC(N)=O)NC(=O)[C@@H](NC(=O)[C@H](NC(=O)[C@@H](CC(C)C)NC(=O)[C@@H](COC(C)=O)NC(=O)[C@H](NC(=O)[C@@H](CC(C)C)NC(=O)[C@@H](COC(C)=O)NC(=O)[C@H]1CCCN1C(=O)/C(=C/C)NC(=O)CC(CCCCC)OC(C)=O)C(C)C)C(C)C)C(C)C)C(C)C)C(=O)N[C@H]1C(=O)N[C@@H]([C@@H](C)CC)C(=O)N[C@@H](CCOC(C)=O)C(=O)N[C@H](CCNC(C)=O)C(=O)N[C@@H](CCCCNC(C)=O)C(=O)O[C@@H]1C (stereo partly drawn) [compound 15, hexacetyl tolaasin I] (X1-[Dhb][dP][dS](Ac)[dL][dV][dS](Ac)[dL][dV]V[dQ]L[dV][Dhb][d(aThr)]I[hSer](Ac)[dDab](Ac)K(Ac); ester 14-C) as the compound, how does the MIC [1] read?
**A.** The MIC was 1 µg/mL (≈ 0.446 µM).

**Q.** What about the MIC range ([3]; lipodepsipeptides and derivatives, range against the pathogenic bacteria and C. truncatum only) of the same compound?
**A.** The MIC range was 0.7 to 1 µg/mL.

**Q.** What about the MIC range [3, 9] of the same compound?
**A.** The MIC range was 0.7 to 1 µg/mL.

**Q.** For cyclo(L-Pro-L-Val) [compound 11], which “toxicity against Rhodococcus fascians” value [7] is on record?
**A.** Its value is “toxicity similar to that of chloramphenicol”.

**Q.** What about the MIC range [3, 8] of the same compound?
**A.** Its MIC range is “not toxic”.
